Test results from patent US5464819A, “Physiologically active peptide having immunoregulatory activities” (priority 1990, dated 1995).
Ends that are not written are not given here.

Experiments:
Toxoplasma strain RH [1] = experiment: Activity to inhibit multiplication of Toxoplasma (percentage of cells containing Toxoplasma, Toxo-GIF activity, cytotoxicity) in mouse peritoneal macrophages; type: cell-based, Toxoplasma gondii
Experimental: (§1) In the present invention, the activity to inhibit multiplication of Toxoplasma is evaluated by two characteristics, i.e. "percentage of cells containing Toxoplasma" and "Toxoplasma growth inhibitory factor activity (hereinafter referred to as "Toxo-GIF activity")". These characteristics are measured according to the methods described in Nagasawa, H., et.al., Jpn. J. Vet. Sci., vol. 43, pages 307-319, 1981 and Sakurai, H., et.al., Jpn. J. Trop. Med. Hyg., vol. 10, pages 183-195, 1982.
An adult BALB/c female mouse is intraperitoneally injected with 1 ml of a sterilized saline containing 0.2% of glycogen, and, 5 days later, the peritoneal cavity of the mouse is washed with cold Hank's balanced salt solution (hereinafter referred to as "HBSS"), thereby taking up peritoneal exudate cells. These cells are washed by centrifugation at 250×G for 5 min twice, and suspended in Tc199 culture medium containing 10% of heat-inactivated calf serum (hereinafter referred to as "10%-HICS-Tc199 culture medium", see Igaku No Ayumi (Progress in Medicine), 62, No. 6, published on Aug. 5, 1967) in a concentration of 1×10^6 cells/mi. This cell suspension is portionwise poured, 1 ml each, into culture wells (Multidish-tray, FB-16-24-TC, manufactured and sold by Limblo Chemical Co., U.S.A.), which are covered by a circular cover glass having a diameter of 15 mm, and cultured in a 5% CO2 -incubator. In order to remove contaminating erythrocytes and lymphocytes, each of the culture wells is gently rinsed with HBSS three times at intervals of 2 hours, and then cultivated overnight in the CO2 -incubator to thereby form a mouse macrophage monolayer on the cover glass.
Each of the above-obtained monolayers is again rinsed with 10%-HICS-Tc199 culture medium, and inoculated with 1×10^5 tachyzoites of Toxoplasma strain RH per 1×10^6 mouse macrophages or canine monocytes so that the macrophages are infected thereby. Free Toxoplasma organisms having not penetrated into the cells are removed by washing with HBSS one hour after the inoculation.
(§2) A 10%-HICS-Tc199 culture medium containing a peptide sample is applied to the cover glass in an amount of 1 ml per 1×10^6 cells for both of the mouse macrophages and the canine monocytes, followed by cultivation for 48 hours, and then stained with May-Grunwald-Giemsa to thereby count the number of Toxoplasma organisms in the cells. Within a certain visual field on the cover glass, 100 cells are checked to count the number of cells which contain no Toxoplasma, the number of cells which contain one to five Toxoplasm organisms and the number of cells which contain 6 or more Toxoplasma organisms, and the count results are expressed by percentage. Similar checking and counting are performed within four other visual fields on the cover glass. From the data obtained on all of the five visual fields, an average value and a standard deviation are calculated to determine the percentage of cells containing Toxoplasma.
As a peptide sample, use is made of one obtained by dissolving a powdery peptide in 3 ml of 10%-HICS-Tc199 culture medium and then filtering and sterilizing the resultant solution through a membrane filter having a pore size of 0.46 μm. […]
The thus obtained crude Obioactin is fractionated by DEAE-5PW column (manufactured and sold by Tosoh Co., Japan) having an inside diameter of 21.5 mm and a length of 15 cm by NaCl concentration gradient ion exchange chromatography in which a concentration gradient of NaCl from 0M to 1M is made in 0.02M ammonium acetate as a basic solution. Each of the fractions is lyophilized, desalted by gel filtration through Sephadex G-15 (trade name of a gel manufactured and sold by Pharmacia Fine Chemicals Co., Sweden) and lyophilized again.

Toxoplasma = experiment: Toxo-GIF activity of synthetic peptides used singly and in combination (host cells not stated); type: cell-based, Toxoplasma gondii; conditions: total mg/ml: Obio-1 0.49, Obio-2 0.50, Obio-3 0.45, Obio-1+Obio-2 0.49, Obio-1+Obio-3 0.46, Obio-2+Obio-3 0.47
Experimental: as §1, §2
(§3) The Toxo-GIF activity, which is another activity useful for evaluating the activity to inhibit multiplication of Toxoplasma, is defined as a proportion of decrease of Toxoplasma (Tp)-containing cells (in percentage) attributed to the addition of a peptide sample, expressed by percentage, and calculated according to the following formula: Toxo-GIF Activity (%)= [formula]

[2] = tested on: Methylcholanthrene induced tumor (MC tumor); experiment: Effect of peptide injection on tumor multiplication in Methylcholanthrene induced tumor (MC tumor)-bearing mouse; type: in vivo; conditions: 28 days after inoculation with MC tumor cells; 30 μg/mouse intramuscularly every week; control 432±10.5
Experimental: (§4) Methylcholanthrene induced tumor cells excised from an MC induced tumor lump of a BALB/c mouse having, injected thereto, 0.5 mg of 20-Methylcholanthrene (manufactured and sold by Wako Pure Chemical Industries Ltd.), are suspended in RPMI-1640 culture medium, thereby obtaining a cell suspension of 2×10^7 cells/ml. 0.025 ml (5×10^5 MC tumor cells/mouse) of the cell suspension is intramuscularly injected under the skin on the back of a 6-week-old male mouse to inoculate the mouse with MC-tumor cells, thereby obtaining a tumor-bearing mouse.
(§5) Each of Obio-2 and Obio-3 is intramuscularly injected in an amount of 30 μg/mouse under the skin on the back of the mouse every week after the injection of the above MC tumor cell suspension to evaluate the inhibitory effect thereof on the multiplication of the tumor. Five tumor-bearing mice are employed for each test, and an average is taken.

[3] = tested on: mononuclear cells in spleen; experiment: Number of mononuclear cells in spleen and histopathology of MC tumor-bearing mouse; type: in vivo; conditions: for Bleeding colonies at the tumor tissue portions (histopathological findings): MC tumor-bearing mice, large bleeding colonies in uninjected mice; for Spleen mononuclear cell count in tumor-bearing mice relative to normal mice: spleen mononuclear cells, saline 0.10; for Spleen mononuclear cell count in tumor-bearing mice relative to normal mice / Number of mononuclear cells per mouse: MC tumor-bearing mouse; for Number of mononuclear cells per mouse: spleen, 30 μg once a week, normal mouse 13.0 × 10^7, saline 1.3 × 10^7
Experimental: as §4, §5
On the other hand, the number of mononuclear cells in the spleen of tumor-bearing mice injected with Obio-2 and Obio-3 experience only a slight decrease, and retains as large a number as 65 to 70% of that of normal mice. In the histopathological findings of these spleens, no significant change is observed in the spleen follicles of both the tumor-bearing mouse groups injected with Obio-2 and Obio-3 and the tumor-bearing mouse group injected with none of them. However, in the mouse groups injected with Obio-2 and Obio-3, small mononuclear cells (small lymphocytes) and large monocytes in the spleen red marrow conspicuously gather in the mallow, especially around the vessels, whereas the control mouse group not injected with the peptide has only small lymphocytes in the marrow.

Toxoplasma strain RH [4] = experiment: Activity to inhibit multiplication of Toxoplasma in canine monocytes; type: cell-based, Toxoplasma gondii; conditions: Obio-2 0.05 mg/ml, canine monocyte cell
Experimental: as §1
On the other hand, in the preparation of canine monocytes, 5 ml of blood is collected from cervical vein as a peripheral blood, and 0.05% of heparin is added. This blood is subjected to fractionation according to the Conray 400-Ficoll method (see Tsuji, H., Men-eki Jikken Sosaho (Procedure for Immunological Tests), 4th ed., Immunocells I-4, pages 443-446, published by Maeda Printing Co., Ltd., in 1979) to thereby obtain a mononuclear cell fraction. The obtained mononuclear cell fraction is subjected to centrifugation (800×G, 5 min., 4° C.) with HBSS and then with 10%-HICS-Tc199 culture medium, and suspended in 10%-HICS-Tc199 culture medium in a concentration of about 1×10^6 cells/mi. The resultant cell suspension is portionwise poured, 1 ml each, into the above-mentioned culture wells, which are covered by a circular cover glass having a diameter of 15 mm, and cultured in a 5% CO2 -incubator. The culturing is effected for 12 hours, and each of the culture wells is gently rinsed with HBSS three times, followed by cultivation overnight in the CO2 -incubator, to thereby form a canine monocyte monolayer on the cover glass.
Each of the above-obtained monolayers is again rinsed with 10%-HICS-Tc199 culture medium, and inoculated with 1×10^5 tachyzoites of Toxoplasma strain RH per 1×10^6 mouse macrophages or canine monocytes so that the macrophages are infected thereby. […]
A 10%-HICS-Tc199 culture medium containing a peptide sample is applied to the cover glass in an amount of 1 ml per 1×10^6 cells for both of the mouse macrophages and the canine monocytes, followed by cultivation for 48 hours, and then stained with May-Grunwald-Giemsa to thereby count the number of Toxoplasma organisms in the cells. […] From the data obtained on all of the five visual fields, an average value and a standard deviation are calculated to determine the percentage of cells containing Toxoplasma.
as §3, with “[formula] […]” for “[formula]”
(§6) The effect of the No. 5 peptide (Obio-2) is evaluated.

Toxoplasma strain RH [5] = experiment: Activity to inhibit multiplication of Toxoplasma in human myocardial cells (Giardi Heart cell); type: cell-based, Toxoplasma gondii; conditions: Obio-2 0.05 mg/ml
Experimental: as §1
(§7) The cells are suspended in MEM-M culture medium containing 10% of heat-inactivated calf serum at a concentration of 1×10^6 cells/mi. This cell suspension is portionwise poured, 1 ml each, into culture wells (multidish-tray, FB-16-24-TC, manufactured and sold by Limblo Chemical Co., U.S.A.), which are covered by a circular cover glass having a diameter of 15 mm, and cultured in a 5% CO2 -incubator overnight to thereby obtain a cell monolayer (a human myocardial cell monolayer and a human cerebral cell monolayer) on the cover glass.
(§8) The obtained cell monolayer is rinsed with MEM-M culture medium, and inoculated with 1×10^5 tachyzoites of Toxoplasma strain RH per 1×10^6 cells with respect to each of the human myocardial cells and the human brain cells. Free Toxoplasma organisms having not penetrated into the cells are removed by washing with HBSS one hour after the inoculation.
(§9) An MEM-M culture medium containing a peptide sample is applied to the cover glass in an amount of 1 ml per 1×10^6 cells, followed by cultivation for 48 hours, and then stained with May-Grunwald-Giemsa to thereby count the number of Toxoplasma organisms in the cells. The percentage of cells containing Toxoplasma organisms is determined in the same manner as described above for mouse macrophages.
as §3, §6

Toxoplasma strain RH [6] = experiment: Activity to inhibit multiplication of Toxoplasma in human cerebral cells (Flow 3000 cell); type: cell-based, Toxoplasma gondii; conditions: Obio-2 0.05 mg/ml
Experimental: as §1, §7, §8, §9, §3, §6

[7] = synthetic peptide 0.7 mM, mouse peritoneal macrophages
[8] = Obio-2 0.05 mg/ml, mouse macrophage

Substance	Percentage of cells containing Toxoplasma (Tp): 0 Tp (Toxoplasma strain RH [1]; [7]) [%]	Percentage of cells containing Toxoplasma (Tp): 1-5 Tp (Toxoplasma strain RH [1]; [7]) [%]	Percentage of cells containing Toxoplasma (Tp): ≥6 Tp/cell (Toxoplasma strain RH [1]; [7]) [%]	Toxo-GIF (Toxoplasma strain RH [1]; [7]) [%]	Percentage of cells containing Toxoplasma (Tp): 0 Tp (Toxoplasma) [%]	Percentage of cells containing Toxoplasma (Tp): 1-5 Tp (Toxoplasma) [%]	Percentage of cells containing Toxoplasma (Tp): ≥6 Tp/cell (Toxoplasma) [%]	Toxo-GIF (Toxoplasma) [%]	Average tumor area [2] [mm^2]	Bleeding colonies at the tumor tissue portions (histopathological findings) [3]	Spleen mononuclear cell count in tumor-bearing mice relative to normal mice [3]	Number of mononuclear cells per mouse [3]	also measured
GAEEPVV [peptide No. 6]	55.2 ± 6.2	36.2 ± 8.6	8.6 ± 4.4	51.7	59.7 ± 15.8	29.5 ± 11.0	10.8 ± 7.1	51.1	219±40.1	no apparent bleeding colonies	0.72	9.1 × 10^7	–
AEEPVV [peptide No. 5]	64.4 ± 9.3	32.8 ± 8.8	2.8 ± 1.1	61.6	69.6 ± 11.5	24.0 ± 9.1	6.4 ± 2.7	63.1	208±40.1	no apparent bleeding colonies	0.64	8.3 × 10^7	Concentration at which Toxo-GIF activity becomes appreciable / sufficient activity is detected (Toxoplasma strain RH [1]): 0.25 mg/mL; Percentage of cells containing Toxoplasma (Tp): 0 Tp (Toxoplasma strain RH [1]; [8]): 88.4 ± 7.6%; Percentage of cells containing Toxoplasma (Tp): 1-5 Tp (Toxoplasma strain RH [1]; [8]): 7.0 ± 4.5%; Percentage of cells containing Toxoplasma (Tp): ≥6 Tp/cell (Toxoplasma strain RH [1]; [8]): 4.6 ± 4.2%; Toxo-GIF (Toxoplasma strain RH [1]; [8]): 50.4%; Percentage of cells containing Toxoplasma (Tp): 0 Tp (Toxoplasma strain RH [4]): 80.5 ± 6.4%; Percentage of cells containing Toxoplasma (Tp): 1-5 Tp (Toxoplasma strain RH [4]): 12.8 ± 5.4%; Percentage of cells containing Toxoplasma (Tp): ≥6 Tp/cell (Toxoplasma strain RH [4]): 6.7 ± 3.3%; Toxo-GIF (Toxoplasma strain RH [4]): 67.4%; Percentage of cells containing Toxoplasma (Tp): 0 Tp (Toxoplasma strain RH [5]): 80.7 ± 6.1%; Percentage of cells containing Toxoplasma (Tp): 1-5 Tp (Toxoplasma strain RH [5]): 10.6 ± 3.4%; Percentage of cells containing Toxoplasma (Tp): ≥6 Tp/cell (Toxoplasma strain RH [5]): 8.7 ± 2.1%; Toxo-GIF (Toxoplasma strain RH [5]): 57.7%; Percentage of cells containing Toxoplasma (Tp): 0 Tp (Toxoplasma strain RH [6]): 75.4 ± 7.4%; Percentage of cells containing Toxoplasma (Tp): 1-5 Tp (Toxoplasma strain RH [6]): 12.6 ± 6.8%; Percentage of cells containing Toxoplasma (Tp): ≥6 Tp/cell (Toxoplasma strain RH [6]): 2.1 ± 1.9%; Toxo-GIF (Toxoplasma strain RH [6]): 78.2%
